Read-outs that look alike come from different tables or passages of the source.
What was measured:
[1] = test system: T. cruzi (A1) epimastigotes; assay: In vitro trypanocidal activity, Alamar Blue assay, 48 h; type: cell-based, Trypanosoma cruzi; conditions: for Selectivity Index T. cruzi A1: CC50 (J774.2)/IC50; for IC50: Trypanosoma cruzi, 48 h, read-out: T. cruzi IC50 (µM ± SD) A1; for IC50 / Trypanocidal activity class in words, A1 strain: epimastigotes, A1 strain; for Trypanocidal activity class in words, A1 strain: classes by IC50
Procedure: (§1) Both strains were maintained in liver infusion tryptose (LIT) medium supplemented with 10% FBS and 0.1% penicillin-streptomycin. They were preserved by transferring 1 × 10^6 parasites/mL into a new culture medium every week. […] The metabolic activity was determined by the Alamar Blue assay. Briefly, after the incubation period, 20 µL of 2.5 mM resazurin solution was added to each well and incubated for 3 h. Three independent experiments were performed in triplicate. The half-maximum inhibitory concentration (IC50) was determined using probit analysis.

[2] = test system: T. cruzi (NINOA) epimastigotes; assay: as above; type: cell-based, Trypanosoma cruzi; conditions: for Selectivity Index T. cruzi NINOA: CC50 (J774.2)/IC50; for IC50: 48 h, read-out: T. cruzi IC50 (µM ± SD) NINOA; for IC50 / Trypanocidal activity class in words, NINOA strain: epimastigotes, NINOA strain; for Trypanocidal activity class in words, NINOA strain: classes by IC50
Procedure: as §1

[3] = test system: L. mexicana (MHOM/MX/2017/UABJO17FCQEPS) (FCQEPS) promastigotes; assay: In vitro leishmanicidal activity, MTT method, 48 h; type: cell-based, Leishmania mexicana; conditions: for Selectivity Index L. mexicana FCQEPS: CC50 (J774.2)/IC50; for IC50: 48 h, read-out: L. mexicana IC50 (µM ± SD) FCQEPS; for IC50 / Leishmanicidal activity class in words, FCQEPS strain: promastigotes, FCQEPS strain; for Leishmanicidal activity class in words, FCQEPS strain: classes by IC50
Procedure: (§2) To determine the leishmanicidal activity of pyridine-2,5-dicarboxylates, the parasites, in their logarithmic growth phase (5 × 10^5 parasites/mL), were cultured in 96-well microliter plates with the corresponding pyridine-2,5-dicarboxylate compound at different concentrations (0.78–100 µM). Compounds were dissolved in DMSO in a final volume of 200 µL for 48 h at 26 °C. Parasites treated with DMSO (0.2%) were used as a negative control, while treatments with Glucantime and Amphotericin B, at the same concentrations, were used as positive controls. The metabolic activity of the cells was determined using the 3-(4,5-Dimethylthiazol-2-yl)-2,5-diphenyltetrazolium bromide (MTT) method. IC50 was determined using probit analysis. Three independent experiments were performed in triplicate, and the data were analyzed for statistical significance (p < 0.05) using Biostat 5.3.0 software.

[4] = test system: L. mexicana (MNYC/BZ/62/M379) (M379) promastigotes; assay: In vitro leishmanicidal activity, MTT method, 48 h; type: cell-based, Leishmania mexicana; conditions: for Selectivity Index L. mexicana M379: CC50 (J774.2)/IC50; for IC50: 48 h, read-out: L. mexicana IC50 (µM ± SD) M379; for IC50 / Leishmanicidal activity class in words, M379 strain: promastigotes, M379 strain; for Leishmanicidal activity class in words, M379 strain: classes by IC50
Procedure: as §2

[5] = Cytotoxicity assay, MTT method, 48 h; type: cell-based, murine; conditions: mouse, J774.2 macrophage cells, J774.2 cell line, read-out: Macrophage J774.2 CC50 (µM ± SD)
Procedure: A cytotoxicity assay was performed using the murine macrophage J774.2 cell line, which was recloned from the original ascites and solid tumor J774.1 (according to the manufacturer). The cells were cultured in RPMI medium supplemented with 10% SBF, 100 U […] penicillin, 100 µg/mL streptomycin, and glutamine (2 mM), and 5% CO2 atmosphere. The medium was changed every 2–3 days. Macrophages were used at 1 × 10^6 cells and were incubated with compounds at different concentrations (0.75–100 µM, respectively) at 37 °C for 48 h in a 5% CO2 atmosphere. DMSO was used as a negative control (0.2%). The metabolic activity of macrophages was determined by the MTT method. The percentage of cell viability was calculated, and the half-maximal cytotoxic concentration (CC50) was determined using probit analysis. Three independent assays were conducted in triplicate.

Row | Compound | Selectivity Index T. cruzi A1 [1] | IC50 [1] | Selectivity Index T. cruzi NINOA [2] | IC50 ([2]; Trypanosoma cruzi) | IC50 [2] | Selectivity Index L. mexicana FCQEPS [3] | IC50 ([3]; Leishmania mexicana) | Selectivity Index L. mexicana M379 [4] | IC50 ([4]; Leishmania mexicana) | Leishmanicidal activity class in words, M379 strain [4] | CC50 at 48 h [5] | IC50 [3] | IC50 [4] | Leishmanicidal activity class in words, FCQEPS strain [3] | Trypanocidal activity class in words, NINOA strain [2] | Trypanocidal activity class in words, A1 strain [1]
1 | CCOC(=O)c1nc(C)c(C(=O)OC2C[C@@H]3CC[C@@]2(C)C3(C)C)cc1-c1ccc(F)cc1 (stereo partly drawn) [Compound 9c] | >1 | > 200 µM | >7.6 | 26.2 µM | 26.2 ± 1.55 µM | >1 | > 200 µM | >1 | > 200 µM | inactive | > 200 µM |  |  |  |  | 
2 | CCOC(=O)c1nc(C)c(C(=O)OCC23CC4CC(CC(C4)C2)C3)cc1-c1ccccc1 [Compound 10a] | >4.3 | 46.9 µM | >1.9 | 105 µM | 105 ± 1.34 µM | >1.2 | ≤ 162 µM | >2.4 | ≤ 162 µM |  | > 200 µM | 161.53 ± 0.03 µM | 82.19 ± 0.01 µM |  |  | 
3 | CCOC(=O)c1nc(C)c(C(=O)OCC23CC4CC(CC(C4)C2)C3)cc1-c1ccc(C)cc1 [Compound 10b] | >1.8 | 111 ± 1.14 µM |  | < 26.4 µM | 20.98 ± 0.15 µM | >2.1 | 92.93 ± 0.02 µM | >1 | > 200 µM |  | > 200 µM |  |  |  |  | 
4 | CCOC(=O)c1nc(C)c(C(=O)OCC23CC4CC(CC(C4)C2)C3)cc1-c1ccc(F)cc1 [Compound 10c] | >5.2 | 38.2 ± 2.86 µM | >4.0 | 50.6 ± 1.06 µM |  | >1 | > 200 µM | >3.6 | < 56 µM |  | > 200 µM |  | 54.8 µM | abolished their leishmanicidal activity |  | 
5 | CCOC(=O)c1nc(C)c(C(=O)OCCC(C)CCC=C(C)C)cc1-c1ccccc1 (stereo not drawn) [Compound 11a] |  | > 200 µM |  | > 200 µM |  | 1.6 | 73 ± 1.78 µM |  | > 200 µM | did not have antiparasitic activity | 119 ± 7.3 µM |  |  |  | inactive | 
6 | CCOC(=O)c1nc(C)c(C(=O)OCCC(C)CCC=C(C)C)cc1-c1ccc(F)cc1 (stereo not drawn) [Compound 11c] | >8.0 | 24.9 ± 4.1 µM | >2.5 | 79.9 ± 2.6 µM |  | >1 | > 200 µM | >1 | > 200 µM | inactive | > 200 µM |  |  | abolished their leishmanicidal activity |  | 
7 | CCOC(=O)c1nc(C)c(C(=O)OC/C=C(\C)CCC=C(C)C)cc1-c1ccccc1 [Compound 12a] | 0.2 | 117.8 ± 0.94 µM | 0.2 | 106 ± 1.43 µM |  | 0.3 | 75.3 ± 4.28 µM |  | > 200 µM | did not have antiparasitic activity | 25 ± 0.8 µM |  |  |  | slight trypanocidal activity | slight activity
8 | CCOC(=O)c1nc(C)c(C(=O)OC/C=C(\C)CCC=C(C)C)cc1-c1ccc(C)cc1 [Compound 12b, (E)-5-(3,7-Dimethylocta-2,6-dien-1-yl) 2-ethyl 6-methyl-3-(p-tolyl)pyridine-2,5-dicarboxylate] | >1 | > 200 µM | >1 | > 200 µM |  | >3.5 |  | >3.6 |  |  | > 200 µM |  |  |  |  | completely lose their trypanocidal activity
